In brackets after ≈: the same amount, converted by molar mass.

We go through 3 compounds from patent publication US20110015119A1, “NOVEL SEMI-SYNTHETIC GLYCOPEPTIDES AS ANTIBACTERIAL AGENTS” (LEAD THERAPEUTICS, INC., priority 2009, published 2011).

Holding throughout (type): cell-based
The subject of assay [1] is Staphylococcus epidermidis 831 (MRSE). Put plainly: MIC by broth microdilution, SE 831. Particulars: Staphylococcus epidermidis 831 (MRSE); class symbols; read-out: MIC SE 831. As to the method: (§1) Antibacterial activity in vitro is investigated by broth microdilution method in Meuller-Hinton broth as recommended by NCCLS. All strains tested are clinical isolates either sensitive or resistant to natural glycopeptides. MIC values were determined using the CLSI-recommended broth microdilution procedure (Clinical and Laboratory Standards Institute, Methods for Dilution Antimicrobial Susceptibility Tests for Bacteria That Grow Aerobically; Approved Standard-Seventh Edition.). Automated liquid handlers (Multidrop 384, Labsystems, Helsinki, Finland; Biomek 2000 and Multimek 96, Beckman Coulter, Fullerton Calif.) were used to conduct serial dilutions and liquid transfers. The MIC value for vancomycin is given for comparison. The abbreviations for organisms tested are as follow: SA 100—Staphylococcus aureus 100 (ATCC 29213); SA 757—Staphylococcus aureus 757 (MRSA); SA 2012—Staphylococcus aureus 2012 (VISA); SE 835—Staphylococcus epidermidis 835; SE 831—Staphylococcus epidermidis 831 (MRSE); EFc 101—Enterococcus faecalis 101 (ATCC 29212); EFc 848—Enterococcus faecalis 848 (VRE, Van A); EFcm 800—Enterococcus faecium 800; EFcm 752—Enterococcus faecium 752 (VRE, Van A); SPNE 1195—Streptococcus pneumoniae 1195 (ATCC 49619); SPY 712—Streptococcus pyogenes 712.

For assay [2], the system named is Staphylococcus aureus 100 (ATCC 29213). Put plainly: MIC by broth microdilution, SA 100. Conditions: ATCC29213; Staphylococcus aureus 100 (ATCC 29213); class symbols; read-out: MIC SA 100. As to the method:
as §1

Assay [3] relates to Staphylococcus aureus 2012 (VISA). Put plainly: MIC by broth microdilution, SA 2012. Conditions: Staphylococcus aureus 2012 (VISA); class symbols; read-out: MIC SA 2012. The procedure:
as §1

Assay [4] deals with Enterococcus faecalis 848 (VRE, Van A). Put plainly: MIC by broth microdilution, EFc 848. Conditions: Enterococcus faecalis 848 (VRE, Van A); class symbols; read-out: MIC E FC 848. The procedure:
as §1

The subject of another assay is Enterococcus faecium 800. Put plainly: MIC by broth microdilution, EFcm 800. Conditions: Enterococcus faecium 800; class symbols; read-out: MIC E FCM 800. As to the method:
as §1

Assay [5] relates to Enterococcus faecium 752 (VRE, Van A). Put plainly: MIC by broth microdilution, EFcm 752. Particulars: Enterococcus faecium 752 (VRE, Van A); class symbols; read-out: MIC E FCM 752. The procedure: as §1
Assay [6] relates to Staphylococcus aureus 757 (MRSA). Put plainly: MIC by broth microdilution, SA 757. Particulars: Staphylococcus aureus 757 (MRSA); class symbols; read-out: MIC SA 757. The procedure: as §1
In assay [7] the test system is Streptococcus pneumoniae 1195 (ATCC 49619). Put plainly: MIC by broth microdilution, SPNE 1195. Conditions: ATCC49619; Streptococcus pneumoniae 1195 (ATCC 49619); class symbols; read-out: MIC S PNE 1195. As to the method:
as §1

Assay [8] relates to Enterococcus faecalis 101 (ATCC 29212). Put plainly: MIC by broth microdilution, EFc 101. Conditions: ATCC29212; Enterococcus faecalis 101 (ATCC 29212); class symbols; read-out: MIC E FC 101. The procedure:
as §1

In assay [9] the test system is Staphylococcus epidermidis 835. Put plainly: MIC by broth microdilution, SE 835. Particulars: Staphylococcus epidermidis 835; class symbols; read-out: MIC SE 835. As to the method: as §1
Assay [10] has as its system Streptococcus pyogenes 712. Put plainly: MIC by broth microdilution, SPY 712. Particulars: Streptococcus pyogenes 712; class symbols; read-out: MIC S PYO 712. As to the method:
as §1

With `CCCCCCc1ccc(S(=O)(=O)NCCOCCNCc2c(O)cc3c(c2O)-c2cc(ccc2O)[C@H]2NC(=O)[C@@H]4NC(=O)[C@H](CC(N)=O)NC(=O)[C@H](NC(=O)[C@@H](CC(C)C)NC)[C@H](O)c5ccc(c(Cl)c5)Oc5cc4cc(c5O[C@@H]4O[C@H](CO)[C@@H](O)[C@H](O)[C@H]4O[C@H]4C[C@]5(C)NC(=O)O[C@@H]5[C@H](C)O4)Oc4ccc(cc4Cl)[C@@H](O)[C@H](NC2=O)C(=O)N[C@@H]3C(=O)O)cc1` (atropisomer, axis not shown) [Compound 308], the MIC in assay [1] was 0.01 to 0.5 µg/mL (≈ 0.00551 to 0.275 µM); in [2] it was 0.01 to 0.5 µg/mL (≈ 0.00551 to 0.275 µM); in [3], 0.5 to 1 µg/mL (≈ 0.275 to 0.551 µM); in [4] it was greater than 16 µg/mL; with Enterococcus faecium 800, 0.01 to 0.5 µg/mL (≈ 0.00551 to 0.275 µM); in assay [5], 4 to 8 µg/mL (≈ 2.2 to 4.41 µM). For the same compound, the minimal inhibitory concentration (MIC) in [6], in [7], in assay [8], in [9] and in [10] was 0.01 to 0.5 µg/mL (≈ 0.00551 to 0.275 µM) in each case.

With `CCCCCCCCc1ccc(S(=O)(=O)NCCCCCCNCc2c(O)cc3c(c2O)-c2cc(ccc2O)[C@H]2NC(=O)[C@@H]4NC(=O)[C@H](CC(N)=O)NC(=O)[C@H](NC(=O)[C@@H](CC(C)C)NC)[C@H](O)c5ccc(c(Cl)c5)Oc5cc4cc(c5O[C@@H]4O[C@H](CO)[C@@H](O)[C@H](O)[C@H]4O[C@H]4C[C@](C)(NC(=O)NC5CC5)[C@H](O)[C@H](C)O4)Oc4ccc(cc4Cl)[C@@H](O)[C@H](NC2=O)C(=O)N[C@@H]3C(=O)O)cc1` (atropisomer, axis not shown) [Compound 366], the minimum inhibitory concentration (MIC) in [1] lay in the range of 0.01 to 0.5 µg/mL (≈ 0.00523 to 0.261 µM); in assay [2] it was 0.01 to 0.5 µg/mL (≈ 0.00523 to 0.261 µM); in assay [3], 0.01 to 0.5 µg/mL (≈ 0.00523 to 0.261 µM); in assay [4], 8 to 16 µg/mL (≈ 4.18 to 8.36 µM); in the assay with Enterococcus faecium 800, 0.01 to 0.5 µg/mL (≈ 0.00523 to 0.261 µM); in assay [5], 2 to 4 µg/mL (≈ 1.05 to 2.09 µM). Further, the MIC in [6], in assay [7], in assay [8], in assay [9] and in assay [10] was 0.01 to 0.5 µg/mL (≈ 0.00523 to 0.261 µM) throughout.

As to `CCCCCCc1ccc(S(=O)(=O)NCCCCCCNCc2c(O)cc3c(c2O)-c2cc(ccc2O)[C@H]2NC(=O)[C@@H]4NC(=O)[C@H](CC(N)=O)NC(=O)[C@H](NC(=O)[C@@H](CC(C)C)NC)[C@H](O)c5ccc(c(Cl)c5)Oc5cc4cc(c5O[C@@H]4O[C@H](CO)[C@@H](O)[C@H](O)[C@H]4O[C@H]4C[C@](C)(NC(=O)[C@H](N)C(C)C)[C@H](O)[C@H](C)O4)Oc4ccc(cc4Cl)[C@@H](O)[C@H](NC2=O)C(=O)N[C@@H]3C(=O)O)cc1` (atropisomer, axis not shown) [Compound 343], the MIC in assay [1] fell in the range of 0.01 to 0.5 µg/mL (≈ 0.00526 to 0.263 µM); in assay [2] it was 0.01 to 0.5 µg/mL (≈ 0.00526 to 0.263 µM); in assay [3] it was 0.01 to 0.5 µg/mL (≈ 0.00526 to 0.263 µM); in assay [4], 8 to 16 µg/mL (≈ 4.21 to 8.42 µM); in the assay on Enterococcus faecium 800, 0.01 to 0.5 µg/mL (≈ 0.00526 to 0.263 µM); in [5] it was 1 to 2 µg/mL (≈ 0.526 to 1.05 µM). For the same compound, the minimal inhibitory concentration (MIC) in assay [6], in assay [7], in assay [8], in assay [9] and in assay [10] was 0.01 to 0.5 µg/mL (≈ 0.00526 to 0.263 µM) throughout.
